Test results reported in paper PMC5903475, “Food-Derived Hemorphins Cross Intestinal and Blood–Brain Barriers In Vitro” (Frontiers in Endocrinology, 2018).
Where a SMILES comes first, the peptide text is derived from it. Where no end group is shown, it is not given here.

Legend:
[1] = tested on: Caco-2/TC7 cell barrier (human intestinal barrier model); conditions: for Time of first appearance of the intact peptide in the basal compartment / Passage of the intact peptide across the Caco-2 monolayer: 5 mM apical; for Passage of the intact peptide across the Caco-2 monolayer: basal samples 5-120 min, MRM; for Intact peptide or fragments present in the apical compartment, intestinal barrier / Intact peptide or fragments present in the basal compartment, intestinal barrier: peptide applied apically at 5 mM, end of the 120 min passage test, LC-MS/MS
Experimental: For the experiment, they were seeded at the density of 60 × 10^3 cells cm^−2 into cell culture inserts in 6-well culture plates and grown for 21 days.
The day of the trans-intestinal transport test, growth media were removed, and cells were first rinsed with the transport medium, HBSS-Hepes buffer supplemented with CaCl2 (2.5 mM final) and MgCl2 (0.5 mM final) in the apical (1 mL) and basolateral chambers (2.5 mL), then pre-incubated for 30 min with the transport medium. All incubations were performed at 37°C, 10% CO2 atmosphere. To control the integrity of the Caco-2/TC7 cell barrier, the paracellular transport marker lucifer yellow (LY, 100 µM final) was applied apically into each well and its transport into the basolateral chamber was monitored by spectrofluorescence. Each hemorphin was diluted for a final concentration of 5 mM in transport medium-LY and applied to the apical chamber at t0. In parallel, control wells were incubated with transport medium-LY only and all conditions were tested in triplicate. At t5, 15, 30, and 60 min, 100 µL samples were collected in the basal chamber and replaced by the same volume of transport medium. At t120 min, all remaining media in basal and apical chambers were collected and all samples were stored at −80°C. The rate of LY transport was determined by fluorescence readings (ex 485/em 530 nm) at each time point on the spectrofluorometer Safas Xenius XC (Safas Monaco, Monaco, France) and calculating the apparent permeability coefficient (Papp) as follows: (ΔQ/Δt) × (Vb/(A × C0)), where ΔQ is the change in LY concentration in the basal chamber (μM); Δt is the transport duration (s); Vb is the volume in the basal chamber (mL); A is the surface area of the insert/transwell membrane (cm^2); and C0 is the initial concentration of LY applied to the apical chamber (μM).
LC-MS/MS analysis was performed on a UFLC-XR device (Shimadzu, Kyoto, Japan) coupled to a QTRAP® 5500 MS/MS hybrid system triple quadrupole/linear ion trap mass spectrometer (AB Sciex, Foster City, CA, USA) equipped with a Turbo VTM ion source. Instrument control, data acquisition, and processing were performed using Analyst 1.5.2 software. The reverse phase liquid chromatography separation was carried out on a Kromasil C18 column (100 × 2.1 mm, 3.5 µm) with guard cartridge from AIT-France (Houilles, France). The injection volume was 2 µL. Elution was performed at a flow rate of 200 µL min^−1 with water-formic acid 0.1% as eluent A and acetonitrile-formic acid 0.1% as eluent B. The injection duty cycle was 10 min, starting with a 1 min plateau with 25% B, followed by a linear gradient from 25 B to 60% B in 4 min, a 1 min plateau with 60% B, 1 min linear gradient from 60 to 25% B, and 3 min at 25% B to recondition the column. MS analysis was carried out in positive ionization mode. The ion source parameters were optimized and set as follows: ion spray voltage, 5,500 V; nebulizer gas (air) and curtain gas (nitrogen) flows, 50 and 25 psi, respectively; source temperature, 550°C with the auxiliary gas flow (air) set at 50 psi; declustering potential (DP), 100 V; and collision cell exit potential, 25 V. The mass spectrometer was operated at a unit resolution for both Q1 and Q3 with a dwell time of 90 ms in each transition.
The presence of each intact hemorphin and potential fragments were tracked by a combination of multiple reaction monitoring (MRM) and pseudo-MRM transitions.

[2] = tested on: brain-like endothelial cells (BLEC) co-cultured with bovine brain pericytes (human BBB model); conditions: peptide applied apically at 100 µM; table footnote says end of 120 min test, Figure 4 says 30 min
Experimental: The brain-like endothelial cell model has previously been described in detail ([28]). All the sample donors had given their written informed consent, in compliance with French legislation and the 2013 version of the Declaration of Helsinki. The sample collection was approved by the local investigational review board (Bethune Maternity Hospital Béthune, France). Briefly, this human model consists in isolating CD34+ cells from umbilical cord blood. These cells are then cultured in endothelial cell medium supplemented with 20% FCS for 15–20 days. After this period, cells are differentiated into endothelial cells. After a trypsinization step, they are seeded on matrigel coated-transwell inserts in 12-well culture plates, and subsequently cultured with brain pericytes, isolated from bovine brain capillaries. After 6 days of co-culture, human endothelial cells acquire the BBB phenotype, and are then named BLECs.
(§1) The day of the transport test, the same procedure as for the intestinal passage assay was applied except that the transwell inserts were transferred to a new 12-well culture plate at each time point, 30, 60, 90, and 120 min. All incubations were performed at 37°C, 5% CO2 atmosphere with slight agitations. The transport medium consisted in Ringer-Hepes solution (150 mM NaCl, 5.2 mM KCl, 2.2 mM CaCl2, 0.2 mM MgCl2⋅6H2O, 6 mM NaHCO3, 5 mM HEPES, pH 7.4). […] A test was performed without cells to insure that the filter membrane was not preventing the passage of the peptides.
The injection volume was 2 µL.

Caco-2/TC7 cell barrier = conditions: LY 100 µM with hemorphin 5 mM apical
Experimental: The day of the trans-intestinal transport test, growth media were removed, and cells were first rinsed with the transport medium, HBSS-Hepes buffer supplemented with CaCl2 (2.5 mM final) and MgCl2 (0.5 mM final) in the apical (1 mL) and basolateral chambers (2.5 mL), then pre-incubated for 30 min with the transport medium. All incubations were performed at 37°C, 10% CO2 atmosphere. To control the integrity of the Caco-2/TC7 cell barrier, the paracellular transport marker lucifer yellow (LY, 100 µM final) was applied apically into each well and its transport into the basolateral chamber was monitored by spectrofluorescence. Each hemorphin was diluted for a final concentration of 5 mM in transport medium-LY and applied to the apical chamber at t0. […] The rate of LY transport was determined by fluorescence readings (ex 485/em 530 nm) at each time point on the spectrofluorometer Safas Xenius XC (Safas Monaco, Monaco, France) and calculating the apparent permeability coefficient (Papp) as follows: (ΔQ/Δt) × (Vb/(A × C0)), where ΔQ is the change in LY concentration in the basal chamber (μM); Δt is the transport duration (s); Vb is the volume in the basal chamber (mL); A is the surface area of the insert/transwell membrane (cm^2); and C0 is the initial concentration of LY applied to the apical chamber (μM).

[3] = tested on: FK-induced intracellular cAMP in Caco-2 cells; experiment: cAMP determination assay in forskolin-stimulated Caco-2 cells; assay type: cell-based, human; conditions: 1 µM alone, 15 min
Experimental: For the cAMP determination assay and the gene expression study, the cell line used was the Caco-2 cell line purchased from Sigma-Aldrich (Steinheim, Germany). Cells were grown at 37°C, 5% CO2 atmosphere in Dulbecco’s modified Eagle’s Medium (DMEM, 4.5 g L^−1 glucose) supplemented with 10% FBS, 2 mM L-glutamine, 100 U mL^−1 penicillin, and 100 µg mL^−1 streptomycin (complete DMEM) until use. Caco-2 from passages 34–37 were used. For the transport studies, the cell lines used and the culture protocols conditions are described in detail in dedicated subsections below.
The effect of the five opioid peptides/hemorphins on the cAMP production was assessed in vitro in Caco-2 cells. Each hemorphin was applied on Caco-2 cells stimulated or not by FK, an activator of the cAMP pathway, in order to evaluate the ability of the peptides to decrease intracellular cAMP elevation induced by FK. […] At the end of the 15 min incubation, cells were immediately rinsed three times with PBS and plates were stored at −80°C until intracellular cAMP levels determination with the Mouse/Rat cAMP Parameter Assay Kit according to the manufacturer’s guidelines. cAMP levels were normalized by the total protein concentration determined by the Pierce BCA Protein Assay Kit for each sample and expressed as a percentage of the reference condition FK only.

[4] = tested on: mu- and kappa-transfected CHO-cells; design: method as in Fukuda et al. 45; conditions: ref Fukuda et al. 45; cited from earlier work
blood-brain barrier = conditions: 125I-H7; rats; cited from earlier work
[5] = tested on: BLEC blood-brain barrier model; conditions: hemorphin 100 µM apical; Dunnett's post hoc
Experimental: as §1

physchem = conditions: pH 7.4
[6] = background statement, no reference printed for it; cited from earlier work
caco-2 cell monolayer = tested on: caco-2 cell monolayer; design: method as in PMID 18468445; conditions: cited from earlier work

LVVYPWT [LVV-H4, LVV-YPWT]
Time of first appearance of the intact peptide in the basal compartment ([1]; Caco-2 model): 60 min
Passage of the intact peptide across the Caco-2 monolayer [1]: clearly able to cross intact the cell monolayer
Intact peptide or fragments present in the apical compartment, intestinal barrier [1]: LVV-H4, VV-H4, H4
Intact peptide or fragments present in the basal compartment, intestinal barrier [1]: H4, VV-H4, LVV-H4
Intact peptide or fragments present in the basal compartment, BBB [2]: H4, VV-H4, LVV-H4

VVYPWTQRF [VV-H7, VV-YPWTQRF]
Passage of the intact peptide across the Caco-2 monolayer [1]: found in traces
Intact peptide or fragments present in the apical compartment, intestinal barrier [1]: VV-H7, VV-H4, H7, H6
Intact peptide or fragments present in the basal compartment, intestinal barrier [1]: H4, VV-H7, H7, H3
Papp(LY) compared to control, intestinal barrier model (Caco-2/TC7 cell barrier): decreased compared to control (non-significant)
Intact peptide or fragments present in the basal compartment, BBB [2]: H4, VV-H7, VV-H4, H7, H3, H5

C=CCN1CC[C@]23c4c5ccc(O)c4O[C@H]2C(=O)CC[C@@]3(O)[C@H]1C5 [naloxone]
Intracellular cAMP, % of FK levels [3]: 68.42 ± 6.87%
Activity at opioid receptors in transfected CHO-cells [4]: partial agonist activity

YPWTQRF [H7, YPWTQRF]
Time to BBB passage after intra-femoral artery injection (blood-brain barrier): ≤ 15 min
Time of first appearance of the intact peptide in the basal compartment ([1]; Caco-2 model): 5 min
Passage of the intact peptide across the Caco-2 monolayer [1]: clearly able to cross intact the cell monolayer

LLVVYPWT [LLVV-H4, LLVV-YPWT]
Papp(LY) compared to control, BBB model [5]: 133.2 ± 16.44%
Passage of the intact peptide across the Caco-2 monolayer [1]: not detected
Papp(LY) compared to control, intestinal barrier model (Caco-2/TC7 cell barrier): decreased compared to control (non-significant)
Intact peptide or fragments present in the basal compartment, BBB [2]: H4, VV-H4, LVV-H4, LLVV-H4
solubility (physchem): > 50 µM

C[C@@H](O)[C@H](NC(=O)[C@H](Cc1c[nH]c2ccccc12)NC(=O)[C@@H]1CCCN1C(=O)[C@@H](N)Cc1ccc(O)cc1)C(=O)O [H4, YPWT] (H-YPWT-OH)
Time of first identification of the fragment in basal samples ([1]; fragment released from hemorphins applied at 5 mM, Caco-2 model): 5 min
Stability in plasma [6]: very stable in plasma

VVYPWT [VV-H4, VV-YPWT]
Papp(LY) compared to control, BBB model [5]: 142.2 ± 26.71%
Time of first appearance of the intact peptide in the basal compartment ([1]; Caco-2 model): 60 min
Passage of the intact peptide across the Caco-2 monolayer [1]: clearly able to cross intact the cell monolayer
Intact peptide or fragments present in the apical compartment, intestinal barrier [1]: VV-H4, H4
Intact peptide or fragments present in the basal compartment, intestinal barrier [1]: H4, VV-H4
Intact peptide or fragments present in the basal compartment, BBB [2]: H4, VV-H4

endomorphine-1
Permeability through a caco-2 cell monolayer (caco-2 cell monolayer): low permeability
